Assays:
Type in all cases: cell-based
SK-BR-3 = assay: Inhibition of proliferation of SK-BR-3 cells by compounds (CellTiter-Glo, 72 h); conditions: SK-BR-3, 72 h incubation
Procedure: 3: Test method (1) Cell plating: first, tumor cells SK-BR-3 were cultured using a corresponding culture medium, trypsinized, centrifuged, resuspended for counting, adjusted to an appropriate concentration, and then plated on a 384-well plate. (2) Co-incubation of the compounds and tumor cells: after the cells adhered to the wall, 100 nL of a diluted bioactive substance (test compound) was added to the cell culture plate using ECHO, the final concentration of DMSO in wells of the cell plate was 0.33%, and the incubation was performed in an incubator at 37°C with 5% CO2 for 72 h. (3) After the incubation was complete, 30 µL of a CTG reagent (CelltiterGlo kit) was added to each well. The culture was oscillated on a fast oscillator for 2 min, centrifuged at 1,000 rpm for 1 min, and kept away from light at room temperature for 30 min. The chemiluminescence signal value was read using an Envision instrument. (4) Cell viability detection: IC50 was calculated using GraphPad Prism 8 software, and the IC50 of the compounds was obtained using the following nonlinear fitting formula (see Table 1) : 1. Y=Bottom+(Top-Bottom)/(1+10^((LogIC50-X)*HillSlope)) 2. […] Table 1 Antiproliferative activity of test compounds on SK-BR-3

MDA-MB-468 = assay: Inhibition of proliferation of MDA-MB-468 cells by test compounds (CellTiter-Glo, 72 h); conditions: MDA-MB-468, 72 h incubation
Procedure: 3: Test method • (1) Cell plating: first, tumor cells MDA-MB-468 were cultured using a corresponding culture medium, trypsinized, centrifuged, resuspended for counting, adjusted to an appropriate concentration, and then plated on a 384-well plate. • (2) Co-incubation of the compounds and tumor cells: after the cells adhered to the wall, 100 nL of a diluted bioactive substance (test compound) was added to the cell culture plate using ECHO, the final concentration of DMSO in wells of the cell plate was 0.33%, and the incubation was performed in an incubator at 37°C with […] for 72 h. • (3) After the incubation was complete, 30 µL of a CTG reagent (CelltiterGlo kit) was added to each well. The culture was oscillated on a fast oscillator for 2 min, centrifuged at 1,000 rpm for 1 min, and kept away from light at room temperature for 30 min. The chemiluminescence signal value was read using an Envision instrument. • (4) Cell viability detection: IC50 was calculated using GraphPad Prism 8 software, and the IC50 of the compounds was obtained using the following nonlinear fitting formula (see Table 2): • 6. Y=Bottom+(Top-Bottom)/(1+10^((LogIC50-X)*HillSlope)) • 7. […] Table 2 Antiproliferative activity of test compounds on MDA-MB-468

NCI-N87 = assay: Inhibition of proliferation of NCI-N87 cells by test compounds (CellTiter-Glo, 72 h); conditions: NCI-N87, 72 h incubation
Procedure: 3: Test method (1) Cell plating: first, tumor cells NCI-N87 were cultured using a corresponding culture medium, trypsinized, centrifuged, resuspended for counting, adjusted to an appropriate concentration, and then plated on a 384-well plate. (2) Co-incubation of the compounds and tumor cells: after the cells adhered to the wall, 100 nL of a diluted bioactive substance (test compound) was added to the cell culture plate using ECHO, the final concentration of DMSO in wells of the cell plate was 0.33%, and the incubation was performed in an incubator at 37°C with […] for 72 h. (3) After the incubation was complete, 30 µL of a CTG reagent (CelltiterGlo kit) was added to each well. The culture was oscillated on a fast oscillator for 2 min, centrifuged at 1,000 rpm for 1 min, and kept away from light at room temperature for 30 min. The chemiluminescence signal value was read using an Envision instrument. (4) Cell viability detection: IC50 was calculated using GraphPad Prism 8 software, and the IC50 of the compounds was obtained using the following nonlinear fitting formula (see Table 3) : 11. Y=Bottom+(Top-Bottom)/(1+10^((LogIC50-X)*HillSlope)) 12. […] Table 3 Antiproliferative activity of test compounds on cells NCI-N87

## CC[C@@]1(O)C(=O)OCc2c1cc1n(c2=O)Cc2c-1nc1cc(F)c(C)c3c1c2[C@@H](NC(=O)C[C@@H](C)O)CCO3 [24-2, (R)-N-((1S,10S)-10-ethyl-6-fluoro-10-hydroxy-5-methyl-11,14-dioxo-2,3,10,11,14,16-hexahydro-1H,13H-oxepino[4,3,2-de]pyrano[3',4':6,7]indolizino[1,2-b]quinolin-1-yl)-3-hydroxybutanamide]
SK-BR-3; Homo sapiens, SK-BR-3, 72 h
  IC50: 16 nM
MDA-MB-468; Homo sapiens, MDA-MB-468, 72 h
  IC50: 14 nM
NCI-N87; Homo sapiens, NCI-N87, 72 h
  IC50: 24 nM

## CC[C@@]1(O)C(=O)OCc2c1cc1n(c2=O)Cc2c-1nc1cc(F)c(C3CC3)c3c1c2C(NC(=O)[C@H]1C[C@@H](O)C1)CCC3 (single isomer, unassigned) [20-1]
SK-BR-3; Homo sapiens, SK-BR-3, 72 h
  IC50: 21 nM
MDA-MB-468; Homo sapiens, MDA-MB-468, 72 h
  IC50: 15.6 nM
NCI-N87; Homo sapiens, NCI-N87, 72 h
  IC50: 26 nM

## (S)-2-cyclopropyl-N-((1S,10S)-5-cyclopropyl-10-ethyl-6-fluoro-10-hydroxy-11,14-dioxo-1,2,3,4,10,11,14,16-octahydro-13H-cyclohepta[3',4':6,7]indolizino[1,2-b]quinolin-1-yl)-2-hydroxyacetamide [33-2]
SK-BR-3
  IC50: 8.4 nM
MDA-MB-468
  IC50: 5 nM
NCI-N87
  IC50: 9 nM

## (R)-3-cyclopropyl-N-((1S,10S)-10-ethyl-6-fluoro-10-hydroxy-5-methyl-11,14-dioxo-1,2,3,4,10,11,14,16-octahydro-13H-cyclohepta[3',4':6,7]indolizino[1,2-b]quinolin-1-yl)-3-hydroxypropanamide [38-1]
SK-BR-3
  IC50: 12 nM
MDA-MB-468
  IC50: 13 nM
NCI-N87
  IC50: 7.5 nM

## (S)-3-cyclopropyl-N-((1S,9S)-4-cyclopropyl-9-ethyl-5-fluoro-9-hydroxy-10,13-dioxo-2,3,9,10,13,15-hexahydro-1H,12H-benzo[d]pyrano[3',4':6,7]indolizino[1,2-b]quinolin-1-yl)-3-hydroxypropanamide [34-1]
SK-BR-3
  IC50: 5.1 nM
MDA-MB-468
  IC50: 4 nM
NCI-N87
  IC50: 6 nM

## CC[C@@]1(O)C(=O)OCc2c1cc1n(c2=O)Cc2c-1nc1cc(F)c(C3CC3)c3c1c2C(NC(=O)C[C@@H](C)O)CC3 (single isomer, unassigned) [17-1]
SK-BR-3; Homo sapiens, SK-BR-3, 72 h
  IC50: 4.6 nM
MDA-MB-468; Homo sapiens, MDA-MB-468, 72 h
  IC50: 5.8 nM
NCI-N87; Homo sapiens, NCI-N87, 72 h
  IC50: 3.6 nM

## CC[C@@]1(O)C(=O)OCc2c1cc1n(c2=O)Cc2c-1nc1cc(F)c(C)c3c1c2C(NC(=O)C[C@@H](C)O)CCC3 (stereo partly drawn) [6-1, (R)-N-((1S,10S)-10-ethyl-6-fluoro-10-hydroxy-5-methyl-11,14-dioxo-1,2,3,4,10,11,14,16-octahydro-13H-cyclohepta[3',4',6,7]indolizino[1,2-b]quinolin-1-yl)-3-hydroxybutanamide]
SK-BR-3
  IC50: 11 nM
MDA-MB-468
  IC50: 8.8 nM
NCI-N87
  IC50: 7.5 nM

## (S)-3-cyclopropyl-N-((1S,10S)-10-ethyl-6-fluoro-10-hydroxy-5-methyl-11,14-dioxo-1,2,3,4,10,11,14,16-octahydro-13H-cyclohepta[3',4':6,7]indolizino[1,2-b]quinolin-1-yl)-3-hydroxypropanamide [38-2]
SK-BR-3
  IC50: 5.4 nM
MDA-MB-468
  IC50: 5.7 nM
NCI-N87
  IC50: 2.9 nM

## CC[C@@]1(O)C(=O)OCc2c1cc1n(c2=O)Cc2c-1nc1cc(F)c(C3CC3)c3c1c2C(NC(=O)[C@H]1C[C@@H](O)C1)CC3 (single isomer, unassigned) [18-2]
SK-BR-3; Homo sapiens, SK-BR-3, 72 h
  IC50: 9.6 nM
MDA-MB-468; Homo sapiens, MDA-MB-468, 72 h
  IC50: 12 nM
NCI-N87; Homo sapiens, NCI-N87, 72 h
  IC50: 16.5 nM

## CC[C@@]1(O)C(=O)OCc2c1cc1n(c2=O)Cc2c-1nc1cc(F)c(C)c3c1c2C(NC(=O)[C@H]1C[C@@H](O)C1)CCO3 (single isomer, unassigned) [25-1]
SK-BR-3
  IC50: 80 nM
MDA-MB-468
  IC50: 69 nM
NCI-N87
  IC50: 110 nM

## CC[C@@]1(O)C(=O)OCc2c1cc1n(c2=O)Cc2c-1nc1cc(F)c(C)c3c1c2[C@@H](NC(=O)C[C@@H](O)C(C)C)CCC3 [37-2, (R)-N-((1S,10S)-10-ethyl-6-fluoro-10-hydroxy-5-methyl-11,14-dioxo-1,2,3,4,10,11,14,16-octahydro-13H-cyclohepta[3',4':6,7]indolizino[1,2-b]quinolin-1-yl)-3-hydroxy-4-methylpentanamide]
SK-BR-3
  IC50: 6.6 nM
MDA-MB-468
  IC50: 6.6 nM
NCI-N87
  IC50: 3.2 nM

## (R)-2-cyclopropyl-N-((1S,10S)-5-cyclopropyl-10-ethyl-6-fluoro-10-hydroxy-11,14-dioxo-1,2,3,4,10,11,14,16-octahydro-13H-cyclohepta[3',4':6,7]indolizino[1,2-b]quinolin-1-yl)-2-hydroxyacetamide [33-1]
SK-BR-3
  IC50: 7.8 nM
MDA-MB-468
  IC50: 6 nM
NCI-N87
  IC50: 8 nM

## C=Cc1c(F)cc2nc3c(c4c2c1CCC4NC(=O)C[C@@H](C)O)Cn1c-3cc2c(c1=O)COC(=O)[C@]2(O)CC (stereo partly drawn) [7-2, (R)-N-((1R,9S)-9-ethyl-5-fluoro-9-hydroxy-10,13-dioxo-4-vinyl-2,3,9,10,13,15-hexahydro-1H,12H-benzo[de]pyrano[3',4',6,7]indolizino[1,2-b]quinolin-1-yl)-3-hydroxybutanamide]
SK-BR-3
  IC50: 7.6 nM
MDA-MB-468
  IC50: 4.4 nM
NCI-N87
  IC50: 4.9 nM

## CC[C@@]1(O)C(=O)OCc2c1cc1n(c2=O)Cc2c-1nc1cc(F)c(C3CC3)c3c1c2C(NC(=O)C[C@@H](C)O)CCC3 (single isomer, unassigned) [19-2]
SK-BR-3
  IC50: 7.6 nM
MDA-MB-468
  IC50: 6.9 nM
NCI-N87
  IC50: 7.4 nM

## (S)-N-((1S,10S)-10-ethyl-6-fluoro-10-hydroxy-5-methyl-11,14-dioxo-1,2,3,4,10,11,14,16-octahydro-13H-cyclohepta[3',4':6,7]indolizino[1,2-b]quinolin-1-yl)-3-hydroxy-4-methylpentanamide [37-1]
SK-BR-3
  IC50: 19 nM
MDA-MB-468
  IC50: 19 nM
NCI-N87
  IC50: 8.6 nM

## CC[C@@]1(O)C(=O)OCc2c1cc1n(c2=O)Cc2c-1nc1cc(F)c(C)c3c1c2[C@@H](NC(=O)[C@H](O)C1CC1)CCO3 [35-1, (R)-2-cyclopropyl-N-((1S,10S)-10-ethyl-6-fluoro-10-hydroxy-5-methyl-11,14-dioxo-2,3,10,11,14,16-hexahydro-1H,13H-oxepino[4,3,2-de]pyrano[3',4':6,7]indolizino[1,2-b]quinolin-1-yl)-2-hydroxyacetamide]
SK-BR-3; Homo sapiens, SK-BR-3, 72 h
  IC50: 16 nM
MDA-MB-468; Homo sapiens, MDA-MB-468, 72 h
  IC50: 12 nM
NCI-N87; Homo sapiens, NCI-N87, 72 h
  IC50: 14 nM

## CC[C@@]1(O)C(=O)OCc2c1cc1n(c2=O)Cc2c-1nc1cc(F)c(OCC(F)(F)F)c3c1c2C(NC(=O)C[C@@H](C)O)CC3 (stereo partly drawn) [8-1, (R)-N-((1S,9S)-9-ethyl-5-fluoro-9-hydroxy-10,13-dioxo-4-(2,2,2-trifluoroethoxy)-2,3,9,10,13,15-hexahydro-1H,12H-benzo[de]pyrano[3',4',6,7]indolizino[1,2-b]quinolin-1-yl)-3-hydroxybutanamide]
SK-BR-3
  IC50: 44 nM
MDA-MB-468
  IC50: 13 nM
NCI-N87
  IC50: 4.2 nM

## CC[C@@H](O)CC(=O)N[C@H]1CCCc2c(C)c(F)cc3nc4c(c1c23)Cn1c-4cc2c(c1=O)COC(=O)[C@]2(O)CC [36-1, (R)-N-((1S,10S)-10-ethyl-6-fluoro-10-hydroxy-5-methyl-11,14-dioxo-1,2,3,4,10,11,14,16-octahydro-13H-cyclohepta[3',4':6,7]indolizino[1,2-b]quinolin-1-yl)-3-hydroxypentanamide]
SK-BR-3
  IC50: 9.2 nM
MDA-MB-468
  IC50: 14 nM
NCI-N87
  IC50: 8.5 nM

## CC[C@@]1(O)C(=O)OCc2c1cc1n(c2=O)Cc2c-1nc1cc(F)c(C)c3c1c2[C@H](NC(=O)C[C@@H](C)O)CCO3 [24-1, (R)-N-((1R,10S)-10-ethyl-6-fluoro-10-hydroxy-5-methyl-11,14-dioxo-2,3,10,11,14,16-hexahydro-1H,13H-oxepino[4,3,2-de]pyrano[3',4':6,7]indolizino[1,2-b]quinolin-1-yl)-3-hydroxybutanamide]
SK-BR-3; Homo sapiens, SK-BR-3, 72 h
  IC50: 47 nM
MDA-MB-468; Homo sapiens, MDA-MB-468, 72 h
  IC50: 38 nM
NCI-N87; Homo sapiens, NCI-N87, 72 h
  IC50: 65 nM

From patent publication EP4692091A1, “CA[…], AND PHARMACEUTICAL COMPOSITION, PREPARATION METHOD THEREFOR AND USE THEREOF” (Changchun Genescience Pharmaceutical Co., Ltd., priority 2023, dated 2024)
